Drawing on US7820665B2, “Imidazopyridazine inhibitors of PI3 kinase for cancer treatment” (Amgen Inc., priority 2007, dated 2010), this text covers IC50 for 19 molecules.

One assay has as its target T1, PI3Kα (Homo sapiens, UniProt P42336).
T1 construct: Full length p110 subunits of PI3K α, β and δ, N-terminally labeled with polyHis tag; polyHis (N); made in house; host or cells: Sf9 insect cells (baculovirus)
The assay is described as follows: In vitro PI3 kinase enzyme assay (PI3K ATPLoss). The assay is classed as biochemical. The settings on record: recombinant p110α/p85, residual ATP by bioluminescence. The method, then:
Full length p110 subunits of PI3K α, β and δ, N-terminally labeled with polyHis tag, can be co-expressed with p85 with Baculo virus expression vectors in sf9 insect cells. P110/p85 heterodimers can be purified by sequential Ni-NTA, Q-HP, Superdex-100 chromatography. Purified α, β and δ isozymes can be stored at −20° C. in 20 mM Tris, pH 8, 0.2M NaCl, 50% glycerol, 5 mM DTT, 2 mM Na cholate. Truncated PI3Kγ, residues 114-1102, N-terminally labeled with polyHis tag, can be expressed with Baculo virus in Hi5 insect cells. The γ isozyme can be purified by sequential Ni-NTA, Superdex-200, Q-HP chromatography. The γ isozyme can be stored frozen at −80° C. in NaH2PO4, pH 8, 0.2M NaCl, 1% ethylene glycol, 2 mM β-mercaptoethanol.
PI3K enzyme assays (alpha, beta, delta and gamma) can be performed in 25 μL with the above final concentrations of components in white polyproplyene plates. Phosphatidyl inositol phosphoacceptor, PtdIns(4,5)P2 (e.g. P4508) can be obtained from Echelon Biosciences, Salt Lake City, Utah. The ATPase activity of the alpha and gamma isozymes may not be greatly stimulated by PtdIns(4,5)P2 under these conditions, it can be omitted from the assay of these isozymes. Test compounds can be dissolved in DMSO and diluted with three-fold serial dilutions. The compound in DMSO (1 μL) may be added per test well, and the inhibition relative to reactions containing no compound, with and without enzyme can be determined. After assay incubation at RT, the reaction can be stopped and residual ATP can be determined by addition of an equal volume of a commercial ATP bioluminescence kit (Perkin Elmer EasyLite, Perkin Elmer, Waltham, Mass.) according to the manufacturer's instructions, and detected using an Analyst GT luminometer.

The subject of assay [1] is Akt phosphorylation at Ser473 in HCT116 cells. The assay is described as follows: Cell-based phospho-AKT Ser473 assay (HCT116 Cell), MSD sandwich immunoassay.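 Note: IGF-1 added at 100 ng/mL for 15 min after compound treatment, electrochemiluminescent readout of phospho-Akt, DMSO-only wells define maximum signal, IC50 reflects inhibition of phosphorylation.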 The settings on record: Homo sapiens, HCT-116, 2 h, read-out: HCT116 Cell IC50, HCT116 cells, 2 h compound, IGF-1 stimulation, pAkt Ser473.
Excerpt: This assay determines the ability of a compound to inhibit the phosphorylation of Serine 472 in Akt using a MSD based sandwich immunoassay (Meso Scale Detection, Meso Scale Discovery (MSD), Gaithersburg, Md.). HCT116 human colon carcinoma cell lines can be grown in McCoy's 5A growth medium (GIBCO, Carlsbad, Calif.) containing 10% FBS (GIBCO, Carlsbad, Calif.) and X1 Penicillin-streptomycin-glutamine (GIBCO, Carlsbad, Calif.). Prior to the assay, cells can be detached from the culture flask with trypsin, and re-suspended in complete media to give a final concentration of 1.6×10^5 cells per mL. Aliquots (100 μl) of the HCT116 cell suspension can be seeded into each well of a 96 well tissue culture plate to give a final density of 16,000 cells per well. Cells can then be incubated overnight at 37° C.
The following day the cells can be treated with serially diluted test compounds and incubated for 2 hours at 37° C. The culture media on the HCT 116 cells can be replaced with 189 μL McCoys media, supplemented with 0.1% BSA (ICN Biomedicals, Inc., Costa Mesa, Calif.). […] Aliquots (1 μL) of serially-diluted compounds can be transferred to 96 well tissue culture plates containing the HCT 116 cells. […] As a maximum response control, wells can contain 0.5% DMSO in place of compound. The plates can be mixed at 700 rpm for 2 min to ensure even distribution of the test compound and incubated for 2 hours at 37° C. Cells can then be stimulated with insulin-like growth factor 1 (Sigma, St Louis, Mo.) at final concentration of 100 ng/mL for 15 minutes at 37° C. The media can then be removed and the cells treated with 80 μL cell-lysis buffer (MSD) containing a cocktail of protease and phosphatase inhibitors for one hour at 4° C.
25 μL Cell lysate can then be transferred to pre-blocked MSD assay plates pre-coated with a capture antibody specific for Akt, and the plates can be incubated for 2 hours at room temperature. The cell lysates can then be removed and plates can then be washed four times with 200 μl per well of Tris wash buffer (500 mM Tris, PH 7.5, 1.5 M NaCl, 0.2% Tween-20). Subsequently cells can be incubated for 1 hour at room temperature with a 25 μL solution containing the detection antibody, anti-phospho Akt (Ser 473) labeled with an electrochemiluminescent compound (Meso Scale Discovery SULPHO-TAG™ label, MSD, Gaithersburg, Md.). The detection antibody can be removed and plates can then be washed four times with 200 μL per well of Tris wash buffer. An aliquot of 150 μL of diluted MSD read buffer can then be applied to each well, and the electrochemiluminescent signal can be measured using a MSD SECTOR™ plate reader (Meso Scale Discovery, Gaithersburg, Md.). This instrument measures the intensity of emitted light to determine a quantitative measure of phosphorylated Akt in each well. The dose-response data obtained with each compound can be analyzed and the IC50 inhibition of Akt phosphorylation at Ser473 can be calculated.
The test system of assay [2] is phosphorylation of Akt at Serine 473 in U87 MG cells. As to the kind of experiment: pAkt AlphaScreen (U87 Cell). It counts as cell-based. The settings on record: Homo sapiens, U-87 MG, 2 h, 2 h compound, pAkt Ser473 AlphaScreen. The method, then:
The pAkt AlphaScreen® assay (PerkinElmer, Waltham, Mass.) determines whether there is phosphorylation of Akt at Serine 473 by recruitment of a phosphospecific antibody. This assay was performed using U87 MG cells. The U87 growth media consists of MEM (Gibco, Carlsbad, Calif.) supplemented with 10% FBS (Gibco), 1× Non-Essential Amino Acids (Gibco) and 1× Penicillin/Streptomycin/Glutamine (Gibco). The cells were maintained weekly using 0.05% Trypsin (Gibco) and replated in 150 mm TC-Treated Culture Dishes (Corning, Corning, N.Y.).
The first day of the assay, the adherent cells were trypsinized, media was added to the loose cells and cells were mixed to a homogenous mixture. 0.5 ml of the homogenous mixture was counted on the Beckman Coulter® Vi-CELL™ XR (Fullerton, Calif.). 50 frames of cells were counted and the number of viable cells was determined. The cells were then diluted to 0.25 million cells per ml, and centrifuged at 200 rcf for 5 minutes. The media was removed and the cells were reconstituted in fresh media for plating. The cells were plated at 20 μl per well on the PerkinElmer® Flexprop PLUS in Low Volume 384 Well White Tissue Culture Plates (Corning) with a final cell density of 5K cells per well. The plates were incubated overnight at 37° Celsius, 5% CO2.
On the second day, the compound plates were prepared, the cells were treated with compound and the pAkt reaction mix was added to the cell lysate. 384 well compound plates were prepared containing 1 μl of compound per well starting at 5 mM and diluted 1:2 across the row, resulting in a 22 well serial dilution. 39 μl of growth media was added to the compound plate in rows 1-22 using the PerkinElmer® FlexDrop PLUS resulting in a DMSO concentration of 2.5%. The cell plates and diluted compound plates were put onto the VELOCITY11™ VPREP™ 384 ST where the compound plate was mixed and 5 μl of serially diluted compound or controls was added to the cell plate. The final concentration of the compounds was 25 μM serially diluted to 11.9 pM in 0.5% DMSO. The cell plates were then incubated with compound for two hours at 37° Celsius, 5% CO2. After two hours, the media in the cell plates was aspirated using the BioTek® ELx405HT plate washer (Winooski, Vt.) removing the majority of media and compound without disturbing the adherent U87 cells. The following assay reagents are components of the SureFire® Akt (Ser 473) Phosphorylation 50K Point Kit (TGR BioSciences, Adelaide, Australia) and an IgG Detection Kit (PerkinElmer, Waltham, Mass.). 5 μl of 1× Lysis Buffer was added to each well using the PerkinElmer® FlexDrop PLUS. The plates were then incubated at room temperature on a shaker for ten minutes. The AlphaScreen® reaction was prepared under low light conditions (subdued or green light) including p-Akt (Ser 473) Reaction Buffer, Dilution Buffer, Activation Buffer, Acceptor Beads and Donor Beads at a ratio of 40:20:10:1:1 respectively. The AlphaScreen® reaction was added to the cell lysate at 6 μl per well using the PerkinElmer® FlexDrop PLUS. The plates were placed in a humid environment to reduce edge effects and incubated overnight at room temperature with restricted air flow in the dark.
On the final day of the experiment, the plates were read on the PerkinElmer® EnVision™ 2103 Multilable Reader using the standard AlphaScreen® readout. The POC is calculated and the data is analyzed to report the IC50 IP for pAkt at Serine 473.
Background: Bead proximity is the source of the signal in Alpha formats.

T1 sequence (P42336 whole entry, species assumed): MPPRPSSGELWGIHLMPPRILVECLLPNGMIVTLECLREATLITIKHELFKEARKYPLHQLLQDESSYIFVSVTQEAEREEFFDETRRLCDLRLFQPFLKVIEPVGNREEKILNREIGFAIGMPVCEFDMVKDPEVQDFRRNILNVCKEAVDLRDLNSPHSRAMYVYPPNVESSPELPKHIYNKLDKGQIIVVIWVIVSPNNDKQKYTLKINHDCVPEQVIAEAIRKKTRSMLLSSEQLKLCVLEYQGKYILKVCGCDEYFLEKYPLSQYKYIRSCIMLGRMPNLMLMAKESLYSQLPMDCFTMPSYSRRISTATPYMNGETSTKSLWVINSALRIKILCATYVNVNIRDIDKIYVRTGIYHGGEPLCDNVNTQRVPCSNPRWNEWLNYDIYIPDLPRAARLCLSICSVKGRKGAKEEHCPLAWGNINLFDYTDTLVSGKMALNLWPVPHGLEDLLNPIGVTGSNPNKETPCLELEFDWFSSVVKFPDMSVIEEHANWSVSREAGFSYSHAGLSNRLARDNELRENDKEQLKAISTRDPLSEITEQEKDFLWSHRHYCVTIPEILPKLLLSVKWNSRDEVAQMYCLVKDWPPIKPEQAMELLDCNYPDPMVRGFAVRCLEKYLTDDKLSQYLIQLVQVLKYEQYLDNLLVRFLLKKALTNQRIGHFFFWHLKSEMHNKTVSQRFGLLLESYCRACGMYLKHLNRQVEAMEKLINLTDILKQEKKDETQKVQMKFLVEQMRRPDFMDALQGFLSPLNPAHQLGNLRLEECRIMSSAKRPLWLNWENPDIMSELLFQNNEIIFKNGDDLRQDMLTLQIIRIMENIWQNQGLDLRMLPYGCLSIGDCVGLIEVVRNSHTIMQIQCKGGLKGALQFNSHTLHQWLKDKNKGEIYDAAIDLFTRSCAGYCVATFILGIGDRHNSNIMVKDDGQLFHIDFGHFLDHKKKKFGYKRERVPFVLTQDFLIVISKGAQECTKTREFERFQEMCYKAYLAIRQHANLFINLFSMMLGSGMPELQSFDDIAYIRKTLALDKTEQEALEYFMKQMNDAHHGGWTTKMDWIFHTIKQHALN
T1 sequence (P27986 whole entry partner, species assumed): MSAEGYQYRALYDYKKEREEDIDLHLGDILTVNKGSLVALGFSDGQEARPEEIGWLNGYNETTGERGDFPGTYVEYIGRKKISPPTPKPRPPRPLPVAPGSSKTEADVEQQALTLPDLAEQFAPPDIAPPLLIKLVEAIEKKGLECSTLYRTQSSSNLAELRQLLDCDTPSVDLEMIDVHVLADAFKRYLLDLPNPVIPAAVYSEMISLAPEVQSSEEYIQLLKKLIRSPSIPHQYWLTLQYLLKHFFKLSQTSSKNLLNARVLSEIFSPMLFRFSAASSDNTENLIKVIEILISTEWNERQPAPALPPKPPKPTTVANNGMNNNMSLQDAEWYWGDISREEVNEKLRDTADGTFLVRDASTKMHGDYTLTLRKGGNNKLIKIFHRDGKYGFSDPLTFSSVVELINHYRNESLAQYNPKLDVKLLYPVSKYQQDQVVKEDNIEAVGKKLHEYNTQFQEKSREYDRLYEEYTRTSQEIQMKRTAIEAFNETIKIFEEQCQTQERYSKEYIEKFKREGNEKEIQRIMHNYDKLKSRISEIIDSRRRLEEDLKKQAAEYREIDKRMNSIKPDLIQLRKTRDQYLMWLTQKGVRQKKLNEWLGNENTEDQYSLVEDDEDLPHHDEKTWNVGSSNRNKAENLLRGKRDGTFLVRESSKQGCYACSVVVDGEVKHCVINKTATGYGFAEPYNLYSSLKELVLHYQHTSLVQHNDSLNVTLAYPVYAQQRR

The term IC50 denotes the midpoint of a concentration-inhibition curve. In the case of `CNC(C)c1ccc(S(=O)(=O)Nc2cc(-c3ccc4nc(NC(C)=O)cn4n3)cnc2Cl)cc1` (racemic) [Example 37, N-(6-(6-chloro-5-(4-(1-(methylamino)ethyl)phenylsulfonamido)pyridin-3-yl)imidazo[1,2-b]pyridazin-2-yl)acetamide], the IC50 was 7 nM on PI3Kα and 244 nM in assay [1].

On to `CC(=O)Nc1cn2nc(-c3cccc(NS(=O)(=O)c4ccc(C)cc4)c3)ccc2n1` [Example 1, N-(6-(3-(4-Methylphenylsulfonamido)phenyl)imidazo[1,2-b]pyridazin-2-yl)acetamide], for which the IC50 at PI3Kα came out at 55 nM; in assay [1], 214 nM.

For `CC(=O)Nc1cn2nc(-c3cccc(N(C)S(=O)(=O)c4ccc(C)cc4)c3)ccc2n1` [Example 2, N-(6-(3-(N,4-Dimethylphenylsulfonamido)phenyl)imidazo[1,2-b]pyridazin-2-yl)acetamide], the IC50 at PI3Kα is 98 nM; in assay [1], 462 nM.

For `CC(=O)Nc1cn2nc(-c3ccnc(Sc4ccccc4F)c3)ccc2n1` [Example 4, N-(6-(2-(2-Fluorophenylthio)pyridin-4-yl)imidazo[1,2-b]pyridazin-2-yl)acetamide], the IC50 was 77 nM at PI3Kα and 1140 nM in assay [1].

As for `CC(=O)Nc1cn2nc(-c3cccc(NS(=O)(=O)c4cccc5ccccc45)c3)ccc2n1` [Example 7, N-(6-(3-(Naphthalene-1-sulfonamido)phenyl)imidazo[1,2-b]pyridazin-2-yl)acetamide], the results for the IC50 (on PI3Kα; in assay [1]) were 62 nM and 456 nM, respectively.

As for `CSc1cncc(-c2ccc3nc(NC(C)=O)cn3n2)c1` [Example 8, N-(6-(5-(Methylthio)pyridin-3-yl)imidazo[1,2-b]pyridazin-2-yl)acetamide], the results for the IC50 (at PI3Kα; in assay [1]) were 60 nM and 1200 nM, respectively.

On to `CC(=O)Nc1cn2nc(-c3cncc(S(C)(=O)=O)c3)ccc2n1` [Example 10, N-(6-(5-(Methylsulfonyl)pyridin-3-yl)imidazo[1,2-b]pyridazin-2-yl)acetamide], for which the IC50 on PI3Kα was 104 nM; in assay [1], 869 nM.

On to `CC(=O)Nc1cn2nc(-c3cncc(NS(=O)(=O)c4ccc(F)cc4)c3)ccc2n1` [Example 11, N-(6-(5-(4-Fluorophenylsulfonamido)pyridin-3-yl)imidazo[1,2-b]pyridazin-2-yl)acetamide], for which the values for the IC50 (on PI3Kα; in assay [1]) were 6 nM and 213 nM, respectively.

With `COc1ccc(S(=O)(=O)N(C)c2nccc(-c3ccc4nc(NC(C)=O)cn4c3)n2)cc1` [Example 13, N-(6-(2-(4-Methoxy-N-methylphenylsulfonamido)pyrimidin-4-yl)H-imidazo[1,2-a]pyridin-2-yl)acetamide], the IC50 at PI3Kα worked out at 146 nM; in assay [1], 847 nM.

For the molecule `CC(=O)Nc1cn2cc(-c3cncc(NS(=O)(=O)c4ccc(F)cc4)c3)ccc2n1` [Example 15, N-(6-(5-(4-Fluorophenylsulfonamido)pyridin-3-yl)H-imidazo[1,2-a]pyridin-2-yl)acetamide], the IC50 is 10 nM on PI3Kα and 975 nM in assay [1].

As to `CC(=O)Nc1cn2cc(-c3cncc(NS(=O)(=O)C4CC4)c3)ccc2n1` [Example 16, N-(6-(5-(Cyclopropanesulfonamido)pyridin-3-yl)H-imidazo[1,2-a]pyridin-2-yl)acetamide], the IC50 on PI3Kα came to 19 nM; in assay [1], 14400 nM.

Regarding `CC(=O)Nc1cn2cc(-c3cncc(NS(C)(=O)=O)c3)ccc2n1` [Example 17, N-(6-(5-(Methylsulfonamido)pyridin-3-yl)H-imidazo[1,2-a]pyridin-2-yl)acetamide], the IC50 at PI3Kα is 37 nM; in assay [1], 29300 nM.

For the molecule `CC(=O)Nc1nc2ccc(-c3cnc(Cl)c(NS(C)(=O)=O)c3)nn2c1-c1ccncc1` [Example 26, N-(6-(6-Chloro-5-(methylsulfonamido)pyridin-3-yl)-3-(pyridin-4-yl)imidazo[1,2-b]pyridazin-2-yl)acetamide], the IC50 on PI3Kα turned out to be 9 nM; in assay [2] it was 6530 nM.

Consider `CS(=O)(=O)Nc1cc(-c2ccc3nc(N)c(-c4ccncc4)n3n2)cnc1Cl` [Example 27, N-(5-(2-Amino-3-(pyridin-4-yl)imidazo[1,2-b]pyridazin-6-yl)-2-chloropyridin-3-yl)methanesulfonamide], for which the figures for the IC50 (at PI3Kα; in assay [2]) were 154 nM and 3500 nM, respectively.

In the case of `CC(=O)Nc1nc2cc(-c3cnc(Cl)c(NS(=O)(=O)c4ccc(F)cc4)c3)ccc2[nH]1` [Example 30, N-(5-(6-Chloro-5-(4-fluorophenylsulfonamido)pyridin-3-yl)-1H-benzo[d]imidazol-2-yl)acetamide], the figures for the IC50 (on PI3Kα; in assay [1]) were 12 nM and 1100 nM, respectively.

Turning to `Nc1nc2ccc(-c3cnc(Cl)c(NS(=O)(=O)c4ccc(F)cc4)c3)cc2n1-c1ccccn1` [Example 31, N-(5-(2-Amino-1-(pyridin-2-yl)-1H-benzo[d]imidazol-6-yl)-2-chloropyridin-3-yl)-4-fluorobenzenesulfonamide], the IC50 on PI3Kα is 8 nM; in assay [1] it was 868 nM.

As to `CC(=O)Nc1cn2nc(-c3cnc(Cl)c(NS(=O)(=O)c4ccc(C)cc4)c3)ccc2n1` [Example 42, N-(6-(6-Chloro-5-(4-methylphenylsulfonamido)pyridin-3-yl)imidazo[1,2-b]pyriadazin-2-yl)acetamide], the IC50 turned out to be 6 nM at PI3Kα and 5 nM in assay [2].

In the case of `COc1ccc(-c2ccc3nc(NC(C)=O)cn3n2)cc1OC` [Example 43, N-(6-(3,4-Dimethoxyphenyl)imidazo[1,2-b]pyridazin-2-yl)acetamide], the IC50 on PI3Kα came out at 44 nM; in assay [2] it was 242 nM.

In the case of `CC(=O)Nc1cn2nc(-c3cc(NS(=O)(=O)c4ccc(F)cc4)c(Cl)nn3)ccc2n1` [Example 52, N-(6-(6-Chloro-5-(4-fluorophenylsulfonamido)pyridazin-3-yl)imidazo[1,2-b]pyridazin-2-yl)acetamide], the IC50 at PI3Kα was 691 nM; in assay [2], 523 nM.
